Data set [1] in a line: Dextran sulfate colitis model of inflammatory bowel disease in mice. Conditions: FIG. 18; all doses 1.34 μmol/kg; N=8. The class given is in vivo, mouse. The source says:
The potential efficacy of a Compound for Inflammatory bowel disease may be modeled as follows. C57 BLK6 or BALBc mice are provided with drinking water containing 2.5% or 2.8% dextran sulfate. Animals are weighed and observed for signs of intestinal disturbance daily. Signs include diarrhea or occult blood. Compound is formulated by mixing with a solution of 0.1 up to 1% citric acid depending on concentration. Compound is provided by oral gavage daily.

A further data set deals with SARS-CoV-2. Kind of data set: SARS-CoV-2 virus production in infected CaCo2 cells (fluorescence or luminescence normalized to Hoechst). Conditions: 10 μM in medium; low values indicate inhibition of viral protein production.
Data set [2] deals with Staphylococcus aureus Newman. Kind of data set: Infection of mice by Staphylococcus aureus Newman (body weight, CFU from kidney). The class given is in vivo. Conditions: FIG. 6; mice infected with Staphylococcus aureus Newman.
The subject of the next data set is Staphylococcus carnosus. The data set is described as follows: Inhibition of growth of Staphylococcus carnosus (optical density of culture). The class given is cell-based. Conditions: after 9-20 h, no compound 0.887. The procedure: (§1) Activity of substances in the inhibition of growth of bacteria. Bacteria including the species Escherichia coli, Bacillus pumilus, Salmonella sp., Micrococcus luteus and Staphylococcus carnosus are cultured in appropriate media (Luria broth for all except S. canosus). Overnight cultures are mixed with fresh medium to reach an optical density at […] of ca. 0.1 AU. These cultures are mixed with solutions of substances to be tested at concentrations ranging from 100 μM to 0.05 μM in a microtitre plate. The growth of the culture is monitored by measuring the optical density at various times after the addition of the inhibitor. Reduction in the rate of increase in optical density corresponds to an inhibition of bacterial growth. In the following tables, the activity of various of the test substances may be observed by reductions in optical density relative to untreated control cultures.

In a further data set the test system is Salmonella typhimurium. Kind of data set: Inhibition of growth of Salmonella typhimurium (optical density of culture). The class given is cell-based. Conditions: after 9-20 h, no compound 0.943. The procedure: as §1

Turning to `CCCCCCCCCCN(C)C1C[C@@H](C)O[C@@H](O[C@@H]2[C@@H](C)[C@H](O[C@H]3C[C@@](C)(OC)[C@@H](O[N+](=O)[O-])[C@H](C)O3)[C@@H](C)C(=O)O[C@H](CC)[C@@](C)(O)[C@H](O)[C@@H](C)N(C)C[C@H](C)C[C@@]2(C)O)[C@@H]1O` (stereo partly drawn) [Compound E-3], the “Body weight and clinical score of BALBc mice at day 9 after commencing 2.5% DSS in water” value in data set [1] was “stimulate inflammation”.

Consider `CCCN(CCO)CC(O)CN(C)[C@H]1C[C@@H](C)O[C@@H](O[C@@H]2[C@@H](C)[C@H](O[C@H]3C[C@@](C)(OC)[C@@H](O)[C@H](C)O3)[C@@H](C)C(=O)O[C@H](CC)[C@@](C)(O)[C@H](O)[C@@H](C)N(C)C[C@H](C)C[C@@]2(C)O)[C@@H]1O` (stereo partly drawn) [Compound A-24, (2R,3S,4R,5R,8R,10R,11R,12S,13S, 14R)-2-ethyl-3,4,10-trihydroxy-11-(((2S,3R,4R,6R)-3-hydroxy-4-((2-hydroxy-3-((2-hydroxyethyl)(propyl)amino)propyl) (methyl)amino)-6-methyltetrahydro-2H-pyran-2-yl)oxy)-13-(((2R,4R,58,6S)-5-hydroxy-4-methoxy-4,6-dimethyltetrahydro-2H-pyran-2-yl)oxy)-3,5,6,8,10,12,14-heptamethyl-1-oxa-6-azacyclopentadecan-15-one], for which the “SARS-CoV-2 viral protein production in CaCo2 cells - effect of each substance at 10 μM (% of untreated)” value in the data set with SARS-CoV-2 is 35 % of untreated.

For `CC[C@H]1OC(=O)[C@H](C)[C@@H](O[C@@H]2O[C@@H](C)[C@@H](OC(C)=O)[C@@H](OC(C)=O)[C@@H]2OC(C)=O)[C@H](C)[C@@H](O[C@@H]2O[C@H](C)C[C@H](N(C)C)[C@H]2O)[C@](C)(O)C[C@@H](C)CN(C)[C@H](C)[C@@H](O)[C@]1(C)O` [Compound A-23, 3-descladinosyl-3-triacetylfucosylazithromycin], in the data set with SARS-CoV-2, the “SARS-CoV-2 viral protein production in CaCo2 cells - effect of each substance at 10 μM (% of untreated)” value is reported as 44 % of untreated.

As to `CC[C@H]1OC(=O)[C@H](C)[C@@H](O[C@H]2C[C@@](C)(OC)[C@@H](O)[C@H](C)O2)[C@H](C)[C@@H](O[C@@H]2O[C@H](C)C[C@H](N(C)C)[C@H]2O)[C@](C)(O)C[C@@H](C)CN(C)[C@H](C)[C@@H](O)[C@]1(C)O` [Azithromycin, reference compound], the “Bacteria quantified as CFU recovered from a standard sample of kidney” value in data set [2] is reported as “decreases recovered bacteria in a dose responsive manner”.

As to `CC[C@H]1OC(=O)[C@H](C)[C@@H](O[C@H]2C[C@@](C)(OC)[C@@H](O)[C@H](C)O2)[C@H](C)[C@@H](O[C@@H]2O[C@H](C)CC(N(C)C)[C@H]2O[N+](=O)[O-])[C@](C)(O)C[C@@H](C)CN(C)[C@H](C)[C@@H](OC)[C@]1(C)O` (stereo partly drawn) [Compound E-11], the “SARS-CoV-2 viral protein production in CaCo2 cells - effect of each substance at 10 μM (% of untreated)” value in the data set with SARS-CoV-2 is reported as 32 % of untreated. The “Absorbance of culture medium at 600 nm” value in the data set with Staphylococcus carnosus (0.8 μM) came to 0.941; with Staphylococcus carnosus (2 μM) it was 0.918; in the data set on Staphylococcus carnosus (3 μM), 0.890; in the data set with Staphylococcus carnosus (6 μM) it was 0.887; in the data set with Staphylococcus carnosus (13 μM), 0.822; with Staphylococcus carnosus (25 μM), 0.819. The “Absorbance of culture medium at 600 nm” value in the data set with Staphylococcus carnosus (50 μM) is 0.574; with Staphylococcus carnosus (100 μM), 0.641; in the data set on Salmonella typhimurium (0.8 μM), 0.555; with Salmonella typhimurium (2 μM), 0.587; in the data set on Salmonella typhimurium (3 μM), 0.623; in the data set on Salmonella typhimurium (6 μM), 0.627. Further, the “Absorbance of culture medium at 600 nm” value in the data set with Salmonella typhimurium (13 μM) is listed as 0.633; with Salmonella typhimurium (25 μM), 0.697; in the data set with Salmonella typhimurium (50 μM) it was 0.650; in the data set on Salmonella typhimurium (100 μM), 0.562.

For `CCC(=O)O[C@@H]1[C@@H](C)N(C)C[C@H](C)C[C@@](C)(O)[C@H](O[C@@H]2O[C@H](C)CC(N(C)C)[C@H]2O)[C@@H](C)[C@H](O[C@H]2C[C@@](C)(OC)[C@@H](O)[C@H](C)O2)[C@@H](C)C(=O)O[C@H](CC)[C@@]1(C)O` (stereo partly drawn) [Compound E-18], in the data set on SARS-CoV-2, the “SARS-CoV-2 viral protein production in CaCo2 cells - effect of each substance at 10 μM (% of untreated)” value was 49 % of untreated.

Regarding `CCCC(=O)O[C@@H]1C(N(C)C)C[C@@H](C)O[C@H]1O[C@@H]1[C@@H](C)[C@H](O[C@H]2C[C@@](C)(OC)[C@@H](O)[C@H](C)O2)[C@@H](C)C(=O)O[C@H](CC)[C@@](C)(O)[C@H](O)[C@@H](C)N(C)C[C@H](C)C[C@@]1(C)O` (stereo partly drawn) [Compound E-19], the “SARS-CoV-2 viral protein production in CaCo2 cells - effect of each substance at 10 μM (% of untreated)” value with SARS-CoV-2 is 34 % of untreated.

As to `CC[C@H]1OC(=O)[C@H](C)[C@@H](O)[C@H](C)[C@@H](O[C@@H]2O[C@H](C)C[C@H](NC)[C@H]2O)[C@](C)(O)C[C@@H](C)CN(C)[C@H](C)[C@@H](O)[C@]1(C)O` [Compound A-25, (2R,3S,4R,5R,8R,10R,11R,12S,13S, 14R)-2-ethyl-3,4,10,13-tetrahydroxy-11-(((2S,3R,4S,6R)-3-hydroxy-6-methyl-4-(methylamino)tetrahydro-2H-pyran-2-yl)oxy)-3,5,6,8,10,12,14-heptamethyl-1-oxa-6-azacyclopentadecan-15-one], in the data set on SARS-CoV-2, the “SARS-CoV-2 viral protein production in CaCo2 cells - effect of each substance at 10 μM (% of untreated)” value is on record as 34 % of untreated.

For the origin of these results see patent US20230131943A1, “ANTI-INFECTIVE AND ANTI-VIRAL COMPOUNDS AND COMPOSITIONS” (priority 2020, published 2023).
